Reference: ChEMBL document CHEMBL1201862, “PubChem BioAssay data set” (2004)
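Where inhibition never reached the appropriate level, the endpoint shown equals the highest concentration tested. Otherwise, values were interpolated linearly from a five-concentration, 48-hour dose response in 96-well plates. GI50: concentration for 50% inhibition of growth.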 Activity calls are given as the source filed them. Rule as the data show it: active = GI50 up to about 1.1 µM and inactive = higher.

Columns and labels:
Assay in all cases: NCI tumour cell line growth inhibition, 48 h
786-0 = system: 786-0
A498 = system: A498
A549 = system: A549
ACHN = system: ACHN
CAKI-1 = system: CAKI-1
CCRF-CEM = system: CCRF-CEM
COLO 205 = system: COLO 205
DU-145 = system: DU-145
EKVX = system: EKVX
HCC 2998 = system: HCC 2998
HCT-116 = system: HCT-116
HCT-15 = system: HCT-15
HL-60 = system: HL-60
HOP-62 = system: HOP-62
HOP-92 = system: HOP-92
HT-29 = system: HT-29
Hs-578T = system: Hs-578T
IGROV-1 = system: IGROV-1
K562 = system: K562
KM12 = system: KM12
LOX IMVI = system: LOX IMVI
M14 = system: M14
MCF7 = system: MCF7
MDA-MB-231 = system: MDA-MB-231
MDA-MB-435 = system: MDA-MB-435
MDA-N = system: MDA-N
MOLT-4 = system: MOLT-4
Malme-3M = system: Malme-3M
NCI-H226 = system: NCI-H226
NCI-H23 = system: NCI-H23
NCI-H460 = system: NCI-H460
NCI-H522 = system: NCI-H522
NCI/ADR-RES = system: NCI/ADR-RES
OVCAR-3 = system: OVCAR-3
OVCAR-4 = system: OVCAR-4
OVCAR-5 = system: OVCAR-5
OVCAR-8 = system: OVCAR-8
PC-3 = system: PC-3
RPMI-8226 = system: RPMI-8226
RXF 393 = system: RXF 393
SF-268 = system: SF-268
SF-295 = system: SF-295
SF-539 = system: SF-539
SK-MEL-28 = system: SK-MEL-28
SK-MEL-2 = system: SK-MEL-2
SK-MEL-5 = system: SK-MEL-5
SK-OV-3 = system: SK-OV-3
SN12C = system: SN12C
SNB-19 = system: SNB-19
SNB-75 = system: SNB-75
SR = system: SR
SW-620 = system: SW-620
T47D = system: T47D
TK-10 = system: TK-10
U-251 = system: U-251
UACC-257 = system: UACC-257
UACC-62 = system: UACC-62
UO-31 = system: UO-31

Compound: CC(C)(C)[Si](C)(C)OCC1CCC(n2cnc3c(NC(=O)c4ccccc4)ncnc32)O1 (stereo not drawn)
- GI50 (786-0): 17.5 µM (inactive)
- GI50 (A498): 21.1 µM (inactive)
- GI50 (A549): 19 µM (inactive)
- GI50 (ACHN): 19.2 µM (inactive)
- GI50 (CAKI-1): 21.4 µM (inactive)
- GI50 (CCRF-CEM): 22 µM (inactive)
- GI50 (COLO 205): 18.5 µM (inactive)
- GI50 (DU-145): 19.4 µM (inactive)
- GI50 (EKVX): 17.6 µM (inactive)
- GI50 (HCC 2998): 19.5 µM (inactive)
- GI50 (HCT-116): 19 µM (inactive)
- GI50 (HCT-15): 18.6 µM
- GI50 (HL-60): 18 µM (inactive)
- GI50 (HOP-62): 22 µM (inactive)
- GI50 (HOP-92): 16.6 µM (inactive)
- GI50 (HT-29): 19.1 µM (inactive)
- GI50 (Hs-578T): 14 µM (inactive)
- GI50 (IGROV-1): 18.1 µM (inactive)
- GI50 (K562): 18.7 µM (inactive)
- GI50 (KM12): 17.3 µM (inactive)
- GI50 (LOX IMVI): 20.2 µM (inactive)
- GI50 (M14): 16.7 µM (inactive)
- GI50 (MCF7): 23.9 µM (inactive)
- GI50 (MDA-MB-231): 20.7 µM (inactive)
- GI50 (MDA-MB-435): 15.8 µM (inactive)
- GI50 (MDA-N): 17.2 µM (inactive)
- GI50 (MOLT-4): 18.2 µM (inactive)
- GI50 (Malme-3M): 19.9 µM (inactive)
- GI50 (NCI-H226): 15.1 µM (inactive)
- GI50 (NCI-H23): 18.4 µM (inactive)
- GI50 (NCI-H460): 18 µM (inactive)
- GI50 (NCI-H522): 16.4 µM (inactive)
- GI50 (NCI/ADR-RES): 16.6 µM (inactive)
- GI50 (OVCAR-3): 14 µM (inactive)
- GI50 (OVCAR-4): 21.8 µM (inactive)
- GI50 (OVCAR-5): 16.7 µM (inactive)
- GI50 (OVCAR-8): 28.5 µM (inactive)
- GI50 (PC-3): 20.6 µM (inactive)
- GI50 (RPMI-8226): 33 µM (inactive)
- GI50 (RXF 393): 22 µM (inactive)
- GI50 (SF-268): 17.7 µM (inactive)
- GI50 (SF-295): 18.2 µM (inactive)
- GI50 (SF-539): 18.3 µM (inactive)
- GI50 (SK-MEL-28): 14.3 µM (inactive)
- GI50 (SK-MEL-2): 19 µM (inactive)
- GI50 (SK-MEL-5): 11.5 µM (inactive)
- GI50 (SK-OV-3): 20 µM (inactive)
- GI50 (SN12C): 18 µM (inactive)
- GI50 (SNB-19): 18.9 µM (inactive)
- GI50 (SNB-75): 10.4 µM (inactive)
- GI50 (SR): 29.9 µM (inactive)
- GI50 (SW-620): 20 µM (inactive)
- GI50 (T47D): 26.4 µM (inactive)
- GI50 (TK-10): 20.5 µM (inactive)
- GI50 (U-251): 18.2 µM (inactive)
- GI50 (UACC-257): 18.7 µM (inactive)
- GI50 (UACC-62): 14 µM (inactive)
- GI50 (UO-31): 1.54 µM (inactive)
